Experimental data from patent US20240025893A1, “PYRIMIDINE-AND NITROGEN-CONTAINING BICYCLIC COMPOUND” (Asahi Kasei Pharma Corporation, priority 2020, published 2024).
pIC50: −log10 of the molar value.

Tests used:
[1] = test system: LPS-stimulated TNFα production in THP-1 cells; experiment: LPS-stimulated TNFα production inhibition test using human acute monocytic leukemia cell strain THP-1; format: cell-based; settings: LPS 2.5 ng/mL, average values
Summary of the method: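 Readout was HTRF-measured TNFα in supernatants, calibrated against a standard curve, after LPS challenge (2.5 ng/mL final, 4 h) of THP-1 cells pretreated 1 h at 37 °C with compound. Unstimulated wells defined 100% suppression and vehicle wells 0%. IC50 was fitted with a 4-parameter logistic model.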

human IRAK-4 = human IRAK-4 (Homo sapiens (Human), UniProt Q9NWZ3); experiment: Measurement of human IRAK-4 inhibitory activity (TR-FRET, peptide substrate phosphorylation, 10 μM ATP); format: biochemical; settings: 1 nM IRAK-4, 10 μM ATP, 23° C., 30 minutes; average values
Summary of the method: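 With 1 nM IRAK-4, 0.5 μM biotinylated peptide and 10 μM ATP, compound incubated 30 min at 23 °C in 50 mM HEPES pH 7.2 with Mg2+/Mn2+. Stopped with EDTA plus europium-cryptate anti-phosphopeptide antibody and streptavidin-XL665, 60 min at 23 °C. Activity taken as the 665/620 nm TR-FRET ratio.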

human IRAK-4, sequence (Q9NWZ3 whole entry): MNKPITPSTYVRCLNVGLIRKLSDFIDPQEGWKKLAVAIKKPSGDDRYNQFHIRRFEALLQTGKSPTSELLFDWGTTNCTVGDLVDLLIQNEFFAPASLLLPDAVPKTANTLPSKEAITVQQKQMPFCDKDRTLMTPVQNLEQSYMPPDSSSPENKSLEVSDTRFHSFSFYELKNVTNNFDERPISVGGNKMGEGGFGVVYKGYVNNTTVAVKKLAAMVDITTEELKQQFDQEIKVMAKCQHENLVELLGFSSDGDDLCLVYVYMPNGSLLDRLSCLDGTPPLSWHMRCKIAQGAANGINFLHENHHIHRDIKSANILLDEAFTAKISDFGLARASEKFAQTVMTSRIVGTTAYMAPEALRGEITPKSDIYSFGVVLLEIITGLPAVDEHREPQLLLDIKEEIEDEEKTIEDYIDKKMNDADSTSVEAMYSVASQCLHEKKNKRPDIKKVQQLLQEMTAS

Row | Structure (SMILES) | pIC50 ([1]; Homo sapiens, THP-1, 4 h) | pIC50 (human IRAK-4) | pIC50 ([1]; 4 hours)
1 | CC(C)(C)O[C@H]1C[C@@H](C(=O)Nc2nc3ccc(-c4cnc(CO[C@H]5CCC[C@@H]5O)nc4)cc3s2)C1 [d-02-01, (1s,3s)-3-(tert-Butoxy)-N-(6-(2-((((1S,2S)-2-hydroxycyclopentyl)oxy)methyl)pyrimidin-5-yl)benzo[d]thiazol-2-yl)cyclobutane-1-carboxamide] | 7.11 | 8.74 | 
2 | CC(=O)N1CCC2(CC1)CC(C(=O)Nc1nc3ccc(-c4cnc(CO[C@H]5CCC[C@@H]5O)nc4)cc3s1)C2 [d-03-01, 7-Acetyl-N-(6-(2-((((1S,2S)-2-hydroxycyclopentyl)oxy)methyl)pyrimidin-5-yl)benzo[d]thiazol-2-yl)-7-azaspiro[3,5]nonane-2-carboxamide] | 7.17 | 8.86 | 
3 | CC(C)C(=O)N1CCC2(CC1)CC(C(=O)Nc1nc3ccc(-c4cnc(CO[C@H]5CCC[C@@H]5O)nc4)cc3s1)C2 [d-03-05] | 7.03 | 8.60 | 
4 | O=C(Nc1nc2ccc(-c3cnc(CO[C@H]4CCC[C@@H]4O)nc3)cc2s1)C1CC2(CCN(C(=O)c3ccccn3)CC2)C1 [d-03-06] | 6.90 | 9.07 | 
5 | O=C(Nc1nc2ccc(-c3cnc(CO[C@H]4CCC[C@@H]4O)nc3)cc2s1)C1CC2(CCN(C(=O)c3cccnc3)CC2)C1 [d-03-07] | 6.86 | 9.07 | 
6 | O=C(Nc1nc2ccc(-c3cnc(CO[C@H]4CCC[C@@H]4O)nc3)cc2s1)C1CC2(CCN(CC(F)(F)F)CC2)C1 [d-03-08] | 6.86 | 8.89 | 
7 | O=C(Nc1nc2ccc(-c3cnc(CO[C@H]4CCC[C@@H]4O)nc3)cc2s1)C1CC2(CCN(C(=O)C3COC3)CC2)C1 [d-03-09] | 6.80 | 8.83 | 
8 | CCO[C@H]1C[C@@H](C(=O)Nc2nc3ccc(-c4cnc(CO[C@H]5CCC[C@@H]5O)nc4)cc3s2)C1 [d-04-01, (1s,3s)-3-Ethoxy-N-(6-(2-((((1S,2S)-2-hydroxycyclopentyl)oxy)methyl)pyrimidin-5-yl)benzo[d]thiazol-2-yl)cyclobutane-1-carboxamide] | 6.74 | 8.68 | 
9 | COCCO[C@H]1C[C@@H](C(=O)Nc2nc3ccc(-c4cnc(CO[C@H]5CCC[C@@H]5O)nc4)cc3s2)C1 [d-04-02] | 6.68 | 8.61 | 
10 | CCCO[C@H]1C[C@@H](C(=O)Nc2nc3ccc(-c4cnc(CO[C@H]5CCC[C@@H]5O)nc4)cc3s2)C1 [d-04-03] | 6.79 | 8.65 | 
11 | O=C(Nc1nc2ccc(-c3cnc(CO[C@H]4CCC[C@@H]4O)nc3)cc2s1)[C@H]1C[C@@H](OCc2ccncc2)C1 [d-04-05] | 6.84 | 8.69 | 
12 | CN(C)CC1CC(C(=O)Nc2nc3ccc(-c4cnc(CO[C@H]5CCC[C@@H]5O)nc4)cc3s2)C1 (stereo partly drawn) [d-05-01, 3-((Dimethylamino)methyl)-N-(6-(2-((((1S,2S)-2-hydroxycyclopentyl)oxy)methyl)pyrimidin-5-yl)benzo[d]thiazol-2-yl)cyclobutane-1-carboxamide] | 6.74 | 8.82 | 
13 | O=C(Nc1nc2ccc(-c3cnc(CO[C@H]4CCC[C@@H]4O)nc3)cc2s1)C1CC(CN2CC(F)C2)C1 (stereo partly drawn) [d-05-02] | 6.65 | 8.68 | 
14 | O=C(Nc1cc2cc(-c3cnc(CO[C@H]4CCC[C@@H]4O)nc3)ccn2n1)C1CC1 [e-01-01, N-(5-(2-((((1S,2S)-2-hydroxycyclopentyl)oxy)methyl)pyrimidin-5-yl)pyrazolo[1,5-a]pyridin-2-yl)cyclopropanecarboxamide] | 6.55 | 8.54 | 
15 | O=C(Nc1cc2cc(-c3cnc(CO[C@H]4CCC[C@@H]4O)nc3)ccn2n1)[C@@H]1C[C@H]1F [e-01-02] | 6.65 | 8.61 | 
16 | C[C@@H]1C[C@H]1C(=O)Nc1cc2cc(-c3cnc(CO[C@H]4CCC[C@@H]4O)nc3)ccn2n1 [e-01-03] | 6.77 | 8.99 | 

Next, values leading:

Row | pIC50 ([1]; Homo sapiens, THP-1, 4 h) | pIC50 (human IRAK-4) | pIC50 ([1]; 4 hours) | Structure (SMILES)
17 | 7.11 | 8.84 |  | Cc1cc(C(=O)N2CCN([C@H]3C[C@@H](C(=O)Nc4cc5cc(-c6cnc(CO[C@H]7CCC[C@@H]7O)nc6)ccn5n4)C3)[C@@H](C)C2)ccn1 [e-02-01, (1R,3s)-N-(5-(2-((((1S,2S)-2-Hydroxycyclopentyl)oxy)methyl)pyrimidin-5-yl)pyrazolo[1,5-a]pyridin-2-yl)-3-((S)-2-methyl-4-(2-methylisonicotinoyl)piperazin-1-yl)cyclobutane-1-carboxamide]
18 | 6.91 | 8.86 |  | C[C@H]1CN(C(=O)c2cccnc2)CCN1[C@H]1C[C@@H](C(=O)Nc2cc3cc(-c4cnc(CO[C@H]5CCC[C@@H]5O)nc4)ccn3n2)C1 [e-02-02]
19 | 7.17 | 8.65 |  | C[C@H]1CN(C(=O)c2ccc(C(F)(F)F)nc2)CCN1[C@H]1C[C@@H](C(=O)Nc2cc3cc(-c4cnc(CO[C@H]5CCC[C@@H]5O)nc4)ccn3n2)C1 [e-02-03]
20 | 6.94 | 8.98 |  | C[C@H]1CN(CC(F)(F)F)CCN1[C@H]1C[C@@H](C(=O)Nc2cc3cc(-c4cnc(CO[C@H]5CCC[C@@H]5O)nc4)ccn3n2)C1 [e-02-04]
21 | 6.91 | 8.94 |  | CCC(=O)N1CCN([C@H]2C[C@@H](C(=O)Nc3cc4cc(-c5cnc(CO[C@H]6CCC[C@@H]6O)nc5)ccn4n3)C2)[C@@H](C)C1 [e-02-05]
22 | 6.95 | 8.89 |  | C[C@H]1CN(C(=O)C2CCC2)CCN1[C@H]1C[C@@H](C(=O)Nc2cc3cc(-c4cnc(CO[C@H]5CCC[C@@H]5O)nc4)ccn3n2)C1 [e-02-06]
23 | 6.82 | 8.88 |  | CC(C)C(=O)N1CCN([C@H]2C[C@@H](C(=O)Nc3cc4cc(-c5cnc(CO[C@H]6CCC[C@@H]6O)nc5)ccn4n3)C2)[C@@H](C)C1 [e-02-07]
24 | 6.78 | 8.88 |  | CC(=O)N1CCN([C@H]2C[C@@H](C(=O)Nc3cc4cc(-c5cnc(CO[C@H]6CCC[C@@H]6O)nc5)ccn4n3)C2)[C@@H](C)C1 [e-02-08]
25 | 7.19 | 8.96 |  | C[C@H]1CN(C(=O)c2ccccc2)CCN1[C@H]1C[C@@H](C(=O)Nc2cc3cc(-c4cnc(CO[C@H]5CCC[C@@H]5O)nc4)ccn3n2)C1 [e-02-09]
26 | 6.88 | 8.96 |  | C[C@H]1CN(C(=O)C2CC2)CCN1[C@H]1C[C@@H](C(=O)Nc2cc3cc(-c4cnc(CO[C@H]5CCC[C@@H]5O)nc4)ccn3n2)C1 [e-02-10]
27 | 7.02 | 8.98 |  | CC(C)[C@H]1COCCN1[C@H]1C[C@@H](C(=O)Nc2cc3cc(-c4cnc(CO[C@H]5CCC[C@@H]5O)nc4)ccn3n2)C1 [e-02-11]
28 |  | 8.72 | 6.89 | C[C@H]1CN(C(=O)c2cccnc2)CCN1[C@H]1C[C@@H](C(=O)Nc2cc3cc(-c4cnc(CO[C@H]5CCC[C@@H]5O)nc4)ccn3n2)C1 [e-02-12]
29 | 6.86 | 8.79 |  | CCCOCc1ncc(-c2ccn3nc(NC(=O)[C@H]4C[C@@H](N5CCN(C(=O)c6ccnc(C)c6)C[C@@H]5C)C4)cc3c2)cn1 [e-02-14]
30 | 6.78 | 8.74 |  | CCCOCc1ncc(-c2ccn3nc(NC(=O)[C@H]4C[C@@H](N5CCN(C(=O)C6CCOC6)C[C@@H]5CC)C4)cc3c2)cn1 (stereo partly shown) [e-02-15]
31 | 6.76 | 8.73 |  | CCCOCc1ncc(-c2ccn3nc(NC(=O)[C@H]4C[C@@H](N5CCN(C(=O)c6ccc(C(F)(F)F)cn6)C[C@@H]5C)C4)cc3c2)cn1 [e-02-16]
32 | 6.70 | 8.87 |  | CCCOCc1ncc(-c2ccn3nc(NC(=O)[C@H]4C[C@@H](N5CCN(C(=O)c6ccnc(C(F)(F)F)c6)C[C@@H]5C)C4)cc3c2)cn1 [e-02-17]
